Experimental data: article PMC5552880, “The Bitter Taste Receptor TAS2R16 Achieves High Specificity and Accommodates Diverse Glycoside Ligands by using a Two-faced Binding Pocket” (Scientific Reports, 2017)
Residue numbers refer to the chain shown, from its start. “Also recorded” adds a separate entry of the source. Where two headings read alike, the source gives them in different places. Each block holds one molecule with its values, some of them ahead of it.

Experiments:
S228T TAS2R16 = target: T1, S228T TAS2R16 (Homo sapiens, UniProt Q9NYV7, S228T); experiment: Ca2+ flux assay, mutation library clone S228T; assay type: cell-based; settings: library screening concentrations
T1 construct: FLAG (N); expressed in transfected cells; host or cells: HEK-293T
T1 sequence (Q9NYV7 1-291 S228T): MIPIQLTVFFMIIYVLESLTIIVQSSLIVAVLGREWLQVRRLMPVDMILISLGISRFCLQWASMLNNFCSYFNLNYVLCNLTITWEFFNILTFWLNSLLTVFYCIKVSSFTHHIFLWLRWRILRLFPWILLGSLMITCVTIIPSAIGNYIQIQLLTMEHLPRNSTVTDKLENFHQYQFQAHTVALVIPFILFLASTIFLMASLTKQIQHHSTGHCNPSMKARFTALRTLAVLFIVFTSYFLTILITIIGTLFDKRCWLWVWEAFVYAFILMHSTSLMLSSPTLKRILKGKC
Method: (§1) The TAS2R16 mutation library was tested for function using a Ca^2+ flux assay as described previously. Later screens of individual TAS2R16 mutant clones used 4-nitrophenyl-β-D-glucopyranoside. Briefly, HEK-293T cells, in poly-lysine coated, black 384-well plates with clear bottoms (Costar), were transfected with the TAS2R16 mutation library, and a plasmid expressing a Gα16 chimera containing the last 44 amino acids of rat gustducin (Gα16gust44). Cells were incubated for 22 hours at 37 °C then washed twice with a calcium indicator dye in HBSS containing 20 mM HEPES (Calcium 4 Assay kit, Molecular Devices), incubated with HBSS for 1.5 hr, then moved to a Flexstation II-384 (Molecular Devices) set at 32 °C. […] Concentrations for mutation library screening were chosen to be approximately 2 to 3 times higher than the EC50 values for the ligands to maximize the sensitivity of detecting decreases in signaling due to the mutation in each clone.
(§2) For Ca^2+ flux assays, the value of fluorescence at 30 seconds after ligand addition (the time of peak signal for wild-type TAS2R16) was used as the maximum value. […] Raw data obtained from surface expression and flux experiments were normalized to the values for wild-type TAS2R16 on each plate. Data sets were analyzed and represented as percentage over baseline signal. Mean and standard deviation values were calculated for each clone from replicate assay data.

C79A TAS2R16 = target: T2, C79A TAS2R16 (Homo sapiens, UniProt Q9NYV7, C79A); experiment: Ca2+ flux assay, C79A TAS2R16 variant; assay type: cell-based; settings: Figure S3
T2 construct: FLAG (N); expressed in transfected cells; host or cells: HEK-293T
T2 sequence (Q9NYV7 whole entry C79A): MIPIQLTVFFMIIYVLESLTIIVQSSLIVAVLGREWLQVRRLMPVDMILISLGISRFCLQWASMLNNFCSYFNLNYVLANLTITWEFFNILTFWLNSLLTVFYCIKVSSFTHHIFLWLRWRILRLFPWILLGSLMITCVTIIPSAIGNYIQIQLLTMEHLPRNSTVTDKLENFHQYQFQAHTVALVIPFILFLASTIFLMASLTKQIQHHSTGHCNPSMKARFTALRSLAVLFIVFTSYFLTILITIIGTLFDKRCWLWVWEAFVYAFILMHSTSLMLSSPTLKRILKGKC
Method: as §1
(§3) For Ca^2+ flux assays, the value of fluorescence at 30 seconds after ligand addition (the time of peak signal for wild-type TAS2R16) was used as the maximum value. […] Data sets were analyzed and represented as percentage over baseline signal. Mean and standard deviation values were calculated for each clone from replicate assay data.

S108T TAS2R16 = target: T3, S108T TAS2R16 (Homo sapiens, UniProt Q9NYV7, S108T); experiment: Ca2+ flux assay, mutation library clone S108T; assay type: cell-based; settings: library screening concentrations
T3 construct: FLAG (N); expressed in transfected cells; host or cells: HEK-293T
T3 sequence (Q9NYV7 1-291 S108T): T1 sequence (Q9NYV7 1-291 S228T) with S108T, T228S
Method: as §1, §2

wild-type TAS2R16 = target: T4, wild-type TAS2R16 (Homo sapiens, UniProt Q9NYV7); experiment: Ca2+ flux assay, HEK-293T cells expressing wild-type TAS2R16 and Gα16gust44; assay type: cell-based; settings: for activation of TAS2R16 (agonist screen): compounds screened at 10 mM, wild-type TAS2R16, Fig. 2a
T4 construct: FLAG (N); expressed in transfected cells; host or cells: HEK-293T
T4 sequence (Q9NYV7 1-291): T1 sequence (Q9NYV7 1-291 S228T) with T228S
Method: as §1, §2
(§4) Ligand dose-response data was analyzed with Graphpad Prism 5 software. Data was baseline subtracted and then fit using a sigmoidal dose-response (variable slope) equation.

TAS2R16 [1] = settings: disaccharides; cited from earlier work
N96A TAS2R16 = target: T5, N96A TAS2R16 (Homo sapiens, UniProt Q9NYV7, N96A); experiment: Ca2+ flux assay, N96A TAS2R16 variant; assay type: cell-based; settings: Fig. 7 dose-response
T5 construct: FLAG (N); expressed in transfected cells; host or cells: HEK-293T
T5 sequence (Q9NYV7 whole entry N96A): as the sequence (Q9NYV7 whole entry C79A) above, with A79C, N96A counted along it
Method: as §1, §3
(§5) Ligand dose-response data was analyzed with Graphpad Prism 5 software. […]

W261A TAS2R16 = target: T6, W261A TAS2R16 (Homo sapiens, UniProt Q9NYV7, W261A); experiment: Ca2+ flux assay, W261A TAS2R16 variant; assay type: cell-based; settings: for activation of W261A variant: W261A TAS2R16, relative to wild-type; for decrease in EC50 with W261 mutation compared to WT: W261 to alanine or glycine vs WT
T6 construct: FLAG (N); expressed in transfected cells; host or cells: HEK-293T
T6 sequence (Q9NYV7 1-291 W261A): T1 sequence (Q9NYV7 1-291 S228T) with T228S, W261A
Method: as §1, §2, §4

N96T TAS2R16 = target: T7, N96T TAS2R16 (Homo sapiens, UniProt Q9NYV7, N96T); experiment: Ca2+ flux assay, N96T TAS2R16 variant; assay type: cell-based; settings: Fig. 7 dose-response
T7 construct: FLAG (N); expressed in transfected cells; host or cells: HEK-293T
T7 sequence (Q9NYV7 whole entry N96T): as the sequence (Q9NYV7 whole entry C79A) above, with A79C, N96T counted along it
Method: as §1, §3, §5

W261G TAS2R16 = target: T8, W261G TAS2R16 (Homo sapiens, UniProt Q9NYV7, W261G); experiment: Ca2+ flux assay, mutation library clone W261G; assay type: cell-based; settings: W261G TAS2R16, relative to wild-type, Fig. 5A
T8 construct: FLAG (N); expressed in transfected cells; host or cells: HEK-293T
T8 sequence (Q9NYV7 whole entry W261G): as the sequence (Q9NYV7 whole entry C79A) above, with A79C, W261G counted along it
Method: as §1, §3

TAS2R43 = settings: cited from earlier work
TAS2R16 [2] = settings: cited from earlier work
TAS2R38 = settings: cited from earlier work
[3] = Fig. 2d dose-response, wild-type TAS2R16, HEK-293T, read-out: EC50
[4] = Fig. 5b dose-response, W261A TAS2R16
[5] = Fig. 5b dose-response, wild-type TAS2R16, read-out: EC50 (WT)

Ca2+ flux signaling value (S228T TAS2R16): 105 % of wild-type
activation, % of wild-type activation (C79A TAS2R16): 90 % of wild-type
Ca2+ flux signaling value (S108T TAS2R16): 132 % of wild-type
EC50 (wild-type TAS2R16; [3]): 2500 µM
activation of TAS2R16 (agonist screen) (wild-type TAS2R16): moderate to robust activation
Molecule: CC(=O)N[C@H]1[C@H](Oc2ccccc2)O[C@H](CO)[C@@H](O)[C@@H]1O [β-glucosaminide, phenyl-N-acetyl-β-D-glucosaminide]

EC50 (N96A TAS2R16): 1000 µM
EC50 (W261A TAS2R16; [4]): 200 µM
decrease in EC50 with W261 mutation compared to WT (W261A TAS2R16): ~ 4 fold
Ca2+ flux signaling value (S228T TAS2R16): 120 % of wild-type
EC50 (N96T TAS2R16): 200 µM
Ca2+ flux signaling value (S108T TAS2R16): 103 % of wild-type
EC50 (wild-type TAS2R16; [5]): 800 µM
EC50 (wild-type TAS2R16; Fig. 6 comparative dose-response, wild-type TAS2R16, read-out: EC50 (WT)): 1200 µM
EC50 (wild-type TAS2R16; Fig. 7 dose-response, wild-type TAS2R16, read-out: EC50 (WT)): 1100 µM
EC50 (wild-type TAS2R16; [3]): 650 µM
lower EC50 than 4-NP-β-glucoside (wild-type TAS2R16; wild-type TAS2R16, Fig. 6A): 4 fold
Molecule: O=[N+]([O-])c1ccc(O[C@@H]2O[C@H](CO)[C@@H](O)[C@H](O)[C@@H]2O)cc1 [4-NP-β-mannoside, 4-nitrophenyl-β-D-mannopyranoside]
activation of W261A variant (W261A TAS2R16): strongly activated; also recorded: increased the activation

EC50 (W261A TAS2R16; [4]): 1800 µM
decrease in EC50 with W261 mutation compared to WT (W261A TAS2R16): ~ 4 fold
activation of W261G variant (W261G TAS2R16): higher than wild-type
EC50 (wild-type TAS2R16; [5]): 4900 µM
Molecule: O=[N+]([O-])c1ccc(O[C@@H]2O[C@H](CO)[C@@H](O)[C@H](O)[C@H]2O)cc1 [4-NP-β-glucoside, 4-nitrophenyl-β-D-glucopyranoside]
activation of W261A variant (W261A TAS2R16): strongly activated; also recorded: higher than wild-type; also recorded: increased the activation

EC50 (W261A) (W261A TAS2R16; [4]): high
EC50 (WT) (wild-type TAS2R16; Fig. 5b dose-response, wild-type TAS2R16): high
activation of wild-type TAS2R16 (wild-type TAS2R16; wild-type TAS2R16, HEK-293T): substantially weaker activation
Molecule: OC[C@H]1O[C@@H](Oc2ccccc2)[C@H](O)[C@@H](O)[C@@H]1O [phenyl-β-glucoside, phenyl-β-D-glucoside]

Ca2+ flux signaling value (S228T TAS2R16): 122 % of wild-type
Ca2+ flux signaling value (S108T TAS2R16): 122 % of wild-type
EC50 (wild-type TAS2R16; [3]): 2100 µM
Molecule: CCCCCCO[C@@H]1O[C@H](CO)[C@@H](O)[C@H](O)[C@H]1O [hexyl-glucoside, hexyl-β-D-glucopyranoside]

Second part, the molecule before the results:

Molecule: gentiobiose
activation of TAS2R16 (TAS2R16 [1]): activation

Molecule: C=CCC(=NOS(=O)(=O)O)S[C@@H]1O[C@H](CO)[C@@H](O)[C@H](O)[C@H]1O (stereo in doubt) [sinigrin]
activation of wild-type TAS2R16 (wild-type TAS2R16; wild-type TAS2R16, HEK-293T): activation

Molecule: N#C[C@H](O[C@@H]1O[C@H](CO[C@@H]2O[C@H](CO)[C@@H](O)[C@H](O)[C@H]2O)[C@@H](O)[C@H](O)[C@H]1O)c1ccccc1 [amygdalin]
activation of TAS2R16 (TAS2R16 [1]): activation

Molecule: CCCN(CCC)S(=O)(=O)c1ccc(C(=O)O)cc1 [probenecid]
action on TAS2R43 (TAS2R43): allosteric inhibitor
action on TAS2R16 (TAS2R16 [2]): allosteric inhibitor
action on TAS2R38 (TAS2R38): allosteric inhibitor

Molecule: OC[C@H]1O[C@@H](Sc2ccccc2)[C@H](O)[C@@H](O)[C@@H]1O [phenyl-β-D-thioglucopyranoside]
activation of TAS2R16 (agonist screen) (wild-type TAS2R16): moderate to robust activation
activation of wild-type TAS2R16 (wild-type TAS2R16; wild-type TAS2R16, HEK-293T): activation
